The source of these data is patent US8227616B2, “Cyanopyridine antibacterial agents and methods of use thereof” (Wisconsin Alumni Research Foundation, priority 2006, dated 2012).

For orientation: MIC means the smallest concentration in the dilution series that meets the test's criterion for growth inhibition.

Values after ≈ are worked out from the molar mass of the structure shown. A value given as a limit tells only on which side of the number the result lay.

Assay [1] deals with S. aureus ATCC 10390. The assay can be described thus: Kirby-Bauer disk diffusion assay on compound spots from cleaved macroarray. Type of assay: cell-based, Staphylococcus aureus. Conditions: loadings 30 μg/spot, 18 h incubation. Here is the method:
While the heterocyclic libraries were being synthesized, the chalcone macroarrays were analyzed using various direct assay techniques such as the Kirby-Bauer disk diffusion assay (FIG. 2E). Bauer, A. W.; Kirby, […].; Turck, M. Technical Bulletin of the Registry of Medical Technologists 1966, 36, 49-52. For this assay, the macroarray members are punched out from the membrane, cleaved from the support with TFA vapor, neutralized with ammonia vapor, and then placed on an agar bed inoculated with S. aureus. After incubating overnight, different diameters of zones of inhibition are measured as a factor of potency as well as solubility in the medium. Ammonia vapor neutralization was key in the disk diffusion assay, otherwise residual TFA vapor created a false positive signature. However, in this method, macroarrays have to be made in triplicate one for a replicate and one for compound characterization. We first evaluated test chalcone macroarrays (3) in antibacterial assays against S. aureus. Because the macroarrays were prepared on cellulose filter paper, we had convenient access to the compounds in disk form for standard disk diffusion assays. Compound spots were punched out of the macroarrays, subjected to vapor phase cleavage with acid (TFA), and neutralized (NH3) to afford disks containing ca. 30 μg of adsorbed compound [8]. These disks were manually placed on lawns of S. aureus, and zones of inhibition were measured after an 18 h incubation period. […] However, this antibacterial assay format had drawbacks: (1) the entire sample of compound was consumed during the assay, and thus replicate arrays needed to be synthesized to confirm activity, and (2) manipulating large numbers of compound disks was relatively labor intensive. Compound spots were cleaved with TFA and neutralized with NH3 as described herein. […] Compound spots were placed onto the agar, the plate was incubated at 37° C. for 18 h, and the diameters of the zones of inhibition were measured. […] Compound spots were subjected to the TFA cleavage conditions described above. The spots were next subjected to NH3 vapor to neutralize any remaining TFA. […] Vials containing the spots (or intact macroarrays) were placed inside a small evaporating dish, and this was placed into the NH4OH solution. The Pyrex dish was covered, and NH3 vapor was allowed to slowly diffuse into the vials. After 1 h, the vials were removed from the NH3 chamber, and the spots were allowed to stand open in a fume hood for at least 15 min to vent prior to analysis in the following assays. This afforded dry, paper disks containing adsorbed compound. […] The plates were removed, and the diameters of the zones of inhibition were measured in mm using a ruler (see FIG. 1A).

The subject of assay [2] is S. aureus ATCC 10390. The assay can be described thus: Estimated MIC, solution-phase microdilution absorbance assay with crude macroarray spot stock solutions. It is filed as cell-based, Staphylococcus aureus. Conditions: for MIC: Staphylococcus aureus, ATCC10390, 12 h. On the procedure:
Spots from a new 69 member chalcone macroarray as well as the three heterocyclic macroarrays prepared earlier were punched out, cleaved, and eluted with acetonitrile. The resulting solutions were concentrated to a residue that was taken up in DMSO to form 2 mM stock solutions.
From the stock solutions, microdilution assays in a 96 well plate starting at 50 μM were performed in quadruplicate. Each well contained 5 μL of the stock solution as well as 195 μL of a S. aureus culture. The turbidity of each well was measured after incubating 12 hours using a standard plate reader. Active compounds can be further diluted and the assay repeated.
To acquire more quantitative antibacterial activity data about our compounds and verify our on-support assay results, we performed solution-phase absorbance assays that provided estimates of the minimum inhibitory concentration (MIC) of each macroarray member against S. aureus. Stock solutions (ca. 2 mM) were generated by cleaving and eluting 198 individual compounds from chalcone (3) and heterocyclic macroarrays (5, 7, and 8). […] The good overall purities of the crude macroarray compounds allowed for reasonable estimations of MICs.
(§1) For estimated MIC determination, DMSO was added to the dried compound residue obtained from a single spot to afford ca. 100 μL of a 2 mM stock solution. Aliquots (5 μL) of these solutions were added to a 96-well plate, followed by 195 μL of diluted S. aureus 10390 (10^6 CFUs/mL) to yield ca. 50 μM final concentrations. The plates were swirled for 1 h to ensure compound dissolution, incubated for 12 h at 37° C., and the absorbance at 595 nm was recorded using a plate reader. […] Actual MIC values were determined for lead compounds resynthesized in solution using an analogous procedure with solutions of known concentration (see).
Preparation of spot samples and controls. An aliquot of DMSO (ca. 100 μL depending on the loading of the parent hydroxyacetophenone) was added to the dried compound residue obtained after TFA cleavage and elution from a single spot. This afforded a 2.0 mM “spot stock” solution for each spot. A small aliquot of each “spot stock” solution was saved for subsequent LC-MS analysis.
For estimated MIC screens, 5.0 μL portions of the “spot stock” solutions were added to the appropriate wells in a sterile, polystyrene 96-well plate to yield ca. 50 μM solutions (dependent on the initial loading of hydroxyacetopheneone and compound purity). To the positive and negative control wells, 5.0 μL of DMSO were added (positive controls contained bacteria but no compound, while negative controls had neither compound nor bacteria). All estimated MIC assays were performed in quadruplicate. Note: the MIC value is defined as the lowest concentration where no bacterial growth occurs.
Representative estimated MIC assay procedure. This assay procedure is based in part on the method reported by Strøm et al.^xiii A 400 μL portion of overnight S. aureus 10390 culture was diluted with 100 mL of sterile LB broth to give ca. 10^6 CFUs per mL. Aliquots (195 μL) of this solution were added to all of the wells in a sterile 96-well plate (except for the negative control wells; 195 μL of sterile LB broth were added to these wells). The plates were placed on an orbital shaker table and gently swirled for 1 h to ensure compound dissolution, and then incubated (without shaking) for 12 h at 37° C. The absorbance at 595 nm was recorded using a plate reader.
The original “spot stock” solutions of these compounds were diluted with DMSO to give ca. 25 and 13 μM final concentrations and tested for inhibitory activities using the procedure described above.

For assay [3], the system named is Methicillin-resistant S. aureus ATCC 33591 (MRSA). In words: MIC determination with authentic compounds resynthesized in solution. It is filed as cell-based. Conditions: Staphylococcus aureus; Table 3; authentic sample, only trans isomers of chalcones; error reflects step size in the serial dilutions. Here is the method:
as §1
(§2) Dose response growth inhibition curves were determined for each active compound (resynthesized in solution) against S. aureus 10390 (SA) and methicillin-resistant S. aureus 33591 (MRSA). […] MIC assays were performed in quadruplicate.

The test system of assay [4] is S. aureus ATCC 10390. The description is as above. The note with it: for MIC: Staphylococcus aureus, ATCC10390; for MIC against S. aureus 10390: values quoted in killing-curve protocol, unit not given. It is filed as cell-based, Staphylococcus aureus. Further details: MIC against S. aureus 10390: unit: uM. On the procedure:
as §1, §2

The test system of assay [5] is B. subtilis subsp. spizizenii ATCC 6633. In words: MIC determination, species selectivity. It is filed as cell-based. Conditions: Bacillus subtilis, ATCC6633; authentic sample, only trans isomers of chalcones; error reflects step size. Here is the method:
(§3) Each compound from Table 3 was tested for inhibitory activity at 2.5, 5, 7.5, 10, 15, 20, 25, and 30 μM in the susceptible overlaid strains: B. subtilis ATCC 6633, S. epidermidis ATCC 12228, and K. pneumoniae ATCC 4352. MIC assays were run in quadruplicate as described above (with shaking).

Assay [6] deals with S. epidermidis ATCC 12228. The assay can be described thus: MIC determination, species selectivity. Type of assay: cell-based. Conditions: Staphylococcus epidermidis, ATCC12228; authentic sample, only trans isomers of chalcones; error reflects step size. On the procedure:
as §3

Another assay concerns S. aureus 10390. The assay can be described thus: Time-dependent bacterial killing curves. Type of assay: cell-based, Staphylococcus aureus. The note with it: 0.5x to 4x MIC, 0-6 h. Here is the method:
Solutions of compounds 4Bv, 6Ao, 9Cf, and linezolid were prepared in DMSO over a range of concentrations. […] At 0, 2, 4, and 6 h time points, […] samples were withdrawn from the test tubes, diluted into 10 mL of LB broth in a test tube, and swabbed in duplicate on agar plates to determine CFUs. These plates were incubated at 37° C. for 24 h, after which time the colonies were counted visually. […] Instead, 200 μL was removed from the test tube and directly swabbed on the agar plates.

The mark [7] stands for this setting: Table 2, serial dilution of stock solutions obtained by SPOT-synthesis, read-out: estimated MIC range.
Where [8] appears, read: Table 3, serial dilution of spot stock solutions of crude macroarray compounds, read-out: S. aureus Estimated MIC range.
The mark [9] stands for this setting: Table 2, authentic sample synthesized according to standard techniques, read-out: observed MIC.
The mark [10] stands for this setting: Table 3, authentic sample, only trans isomers of chalcones, error reflects step size in the serial dilutions, read-out: S. aureus MIC.

In the case of `COc1cc(C(=O)/C=C/c2ccc(Br)cc2)ccc1O` [Compound 4Cf, 4-bromo-4′-hydroxy-3′-methoxy-chalcone], the Zones of inhibition in the assay on S. aureus ATCC 10390 [1] is recorded as under 1 mm. For the same compound, the MIC in the assay on S. aureus ATCC 10390 [2] (setting [7]) is over 50 µM; in the assay with S. aureus ATCC 10390 [2] (setting [8]), over 50 µM; in assay [3], over 250 µM; in the assay on S. aureus ATCC 10390 [4] (setting [9]) it was over 250 µM; in the assay on S. aureus ATCC 10390 [4] (setting [10]) it was over 250 µM.
Regarding `Cc1nc(-c2ccc(O)cc2)cc(-c2c(Cl)ccc(Cl)c2Cl)c1C#N` [Compound 6Ao, 6-(4-hydroxyphenyl)-2-methyl-4-(2,3,6-trichlorophenyl)-3-cyanopyridine], the “inhibition of S. aureus at the 12.5 μM level” value in the assay on S. aureus ATCC 10390 [2] (12.5 μM, macroarray stock solutions diluted four fold) is “complete inhibition”. For the same compound, the MIC was 6.25 to 12.5 µM (≈ 2.44 to 4.87 µg/mL) in the assay with S. aureus ATCC 10390 [2] (setting [7]); under 12.5 µM in the assay with S. aureus ATCC 10390 [2] (setting [8]); 3.8 ± 1.2 µM (≈ 1.48 µg/mL) in assay [5]; 6.3 ± 1.2 µM (≈ 2.45 µg/mL) in assay [6]; 7.5 ± 1.2 µM (≈ 2.92 µg/mL) in assay [3]; 6 ± 0.5 µM (≈ 2.34 µg/mL) in the assay on S. aureus ATCC 10390 [4] (setting [9]). In the assay with S. aureus ATCC 10390 [4] (setting [10]), the minimum inhibitory concentration (MIC) turned out to be 7.5 ± 1.2 µM (≈ 2.92 µg/mL). The “MIC against S. aureus 10390” value in the assay on S. aureus ATCC 10390 [4] was about 7.5. Further, the “mode of activity (bacteriostatic or bactericidal)” value (from here on “mode of activity”) in the assay with S. aureus 10390 is “bactericidal”.
With `CN[C@H](CC(C)C)C(=O)N[C@H]1C(=O)N[C@@H](CC(N)=O)C(=O)N[C@H]2C(=O)N[C@H]3C(=O)N[C@H](C(=O)N[C@H](C(=O)O)c4cc(O)cc(O)c4-c4cc3ccc4O)[C@H](O)c3ccc(c(Cl)c3)Oc3cc2cc(c3O[C@@H]2O[C@H](CO)[C@@H](O)[C@H](O)[C@H]2O[C@H]2C[C@](C)(N)[C@H](O)[C@H](C)O2)Oc2ccc(cc2Cl)[C@H]1O` [vancomycin, reference compound], the Zones of inhibition in the assay on S. aureus ATCC 10390 [1] is listed as 20 mm.
With `CC(=O)NC[C@H]1CN(c2ccc(N3CCOCC3)c(F)c2)C(=O)O1` [Linezolid, linezolid, reference compound], the MIC in assay [3] was 8 ± 1 µM (≈ 2.7 µg/mL); in the assay with S. aureus ATCC 10390 [4] (setting [9]) it was 6 ± 0.5 µM (≈ 2.02 µg/mL); with S. aureus ATCC 10390 [4] (setting [10]), 10 ± 1 µM (≈ 3.37 µg/mL). In the assay with S. aureus ATCC 10390 [4], the “MIC against S. aureus 10390” value was about 10.0. Moreover, the “mode of activity” value with S. aureus 10390 is “bacteriostatic”.
Take `COc1cc(-c2cc(-c3ccc(Br)cc3)nc(C)n2)ccc1O` [Compound 9Cf, 4-(4-bromophenyl)-6-(4-hydroxy-3-methoxyphenyl)-2-methylpyrimidine]: the MIC in the assay on S. aureus ATCC 10390 [2] (setting [8]) was 25 to 50 µM (≈ 9.28 to 18.6 µg/mL); in assay [5], 17.5 ± 2.5 µM (≈ 6.5 µg/mL); in assay [6], over 30 µM; in assay [3] it was 31.2 ± 1.2 µM (≈ 11.6 µg/mL); in the assay with S. aureus ATCC 10390 [4] (setting [10]) it was 32.5 ± 1.2 µM (≈ 12.1 µg/mL). Moreover, the “MIC against S. aureus 10390” value against S. aureus ATCC 10390 [4] was about 32.5. The “mode of activity” value in the assay with S. aureus 10390 is “bacteriostatic”.
